The results in this text go back to ChEMBL document CHEMBL1132913, “Conformationally-restricted ligands for the histamine H1 receptor” (Bioorg Med Chem Lett, 2000).

The subject of data set [1] is Mus musculus. In words: In vivo activity of compound at 10 mg/kg in 48/80 challenge expressed as number of mice surviving for more than 240 min; 0/2. Type of data set: functional. To be noted: 4 h.
The test system of data set [2] is Mus musculus. In words: In vivo activity of compound at 40 mg/kg in 48/80 challenge expressed as number of mice surviving for more than 240 min; 0/2. In kind it is functional. As to conditions: 4 h.
Data set [3] is described as follows: Partition coefficient (logP). To be noted: octanol/water. Type of data set: physicochemical.
The target in data set [4] is T1, Histamine H1 receptor (Cavia porcellus, UniProt P31389). Briefly: In vitro antagonistic activity at the Histamine H1 receptor in guinea pig ileum. Type of data set: functional, tissue-based.
Data set [5] concerns Mus musculus. In words: In vivo activity of compound at 40 mg/kg in 48/80 challenge expressed as number of mice surviving for more than 240 min; 2/2. Type of data set: functional. As to conditions: 4 h.
Data set [6] relates to Mus musculus. Briefly: In vivo activity of compound at 40 mg/kg in 48/80 challenge expressed as number of mice surviving for more than 240 min; 1/2. In kind it is functional. As to conditions: 4 h.
Data set [7] has as its system Mus musculus. In words: Effective dose (in vivo) by administering the compound in mice was determined. In kind it is functional.
Data set [8] is filed under the species Mus musculus. In words: Effect of compound in the […] challenge in mice; No activity. Type of data set: functional, organism-based.
Data set [9] is filed under the species Mus musculus. In words: Ability of compound to protect mice against a lethal dose of 48/80; No activity. Type of data set: functional, organism-based.
For data set [10], the species on record is Mus musculus. In words: Effective dose of compound in the […] challenge in mice. Type of data set: functional.
Data set [11] deals with Mus musculus. In words: In vivo activity of compound at 10 mg/kg in 48/80 challenge expressed as number of mice surviving for more than 240 min; 1/2. In kind it is functional. To be noted: 4 h.
The species entered for data set [12] is Mus musculus. In words: Compound was tested for protection against 48/80 challenge in mice; No activity with both mice dying at 36 min. Type of data set: functional, organism-based.
Data set [13] has as its target T1, Histamine H1 receptor. In words: In vitro antagonistic activity at the Histamine H1 receptor in guinea pig ileum; No inhibition. In kind it is functional, tissue-based.

pIC50: −log10 of the molar value. The source made the active and inactive calls. No cut-off for these calls is given here.

T1 sequence (P31389 whole entry): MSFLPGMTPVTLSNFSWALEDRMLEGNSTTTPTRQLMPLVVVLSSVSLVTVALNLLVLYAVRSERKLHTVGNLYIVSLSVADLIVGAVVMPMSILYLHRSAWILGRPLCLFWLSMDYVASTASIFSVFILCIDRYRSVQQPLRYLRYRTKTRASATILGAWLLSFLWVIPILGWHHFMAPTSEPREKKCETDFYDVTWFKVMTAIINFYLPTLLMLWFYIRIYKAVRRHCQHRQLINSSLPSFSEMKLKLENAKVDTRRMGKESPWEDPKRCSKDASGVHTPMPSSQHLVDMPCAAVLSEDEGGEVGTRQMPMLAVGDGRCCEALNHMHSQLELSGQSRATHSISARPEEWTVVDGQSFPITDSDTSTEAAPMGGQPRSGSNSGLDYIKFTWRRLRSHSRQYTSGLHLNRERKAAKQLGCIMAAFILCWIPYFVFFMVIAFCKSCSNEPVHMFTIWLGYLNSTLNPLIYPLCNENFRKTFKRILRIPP

As a reminder, the logP is a log measure of how a compound divides between an organic and an aqueous phase. As a reminder, the pIC50 is the negative decadic logarithm of the IC50, by convention in mol/L. Higher therefore signals a low IC50. `c1ccc(CN2CCC3=C(C2)C(c2ccccc2)c2ccccc23)cc1` (centres undefined) showed a survival at 10 mg/kg in the data set on Mus musculus [1] of 0%. For the same molecule, the survival at 40 mg/kg in the data set with Mus musculus [2] stood at 0%. Moreover, the log partition coefficient (logP) in data set [3] (read-out: logP) is 6.02. This molecule had a negative-log IC50 (pIC50) against Histamine H1 receptor [4] of 6.33.

The molecule `CCN1CCC2C(=C(c3ccccc3)c3ccccc32)C1` (centres undefined) returned a survival at 40 mg/kg in the data set with Mus musculus [5] of 100%. In addition, the logP in [3] (read-out: logP) turned out to be 5.76.

The term ED50 denotes the dose at which the effect has come halfway, by size or by number of responders. `C1=C2C(=C(c3ccccc3)c3ccccc32)CNC1`: the survival at 40 mg/kg in the data set with Mus musculus [6] and in the data set with Mus musculus [2] was 50% throughout. The median effective dose (ED50) in the data set on Mus musculus [7] was determined as 40 mg/kg. The log partition coefficient (logP) in [3] (read-out: logP) amounted to 4.41. The negative logarithm of the IC50 (pIC50) against Histamine H1 receptor [4] is 7.28.

Regarding `CCc1ccc([C@@H]2c3cc(CC)ccc3[C@@H]3CCN(C)C[C@H]23)cc1`, the ED50 entry in the data set listed under Mus musculus [8] was “inactive”.

As for `CN1CCC2=C(C1)C(c1ccccc1)c1ccccc12` (centres undefined) [PHENINDAMINE], the pIC50 on Histamine H1 receptor [4] was 7.44.

In the case of `CN1CC[C@@](O)(c2ccccc2)[C@H](C(=O)c2ccccc2)C1`, in the data set filed under Mus musculus [9], the outcome was inactive. This molecule also showed a negative logarithm of the IC50 (pIC50) against Histamine H1 receptor [4] of 7.59.

In turn, `c1ccc(CCN2CCC3C(=C(c4ccccc4)c4ccccc43)C2)cc1` (centres undefined) had a survival at 10 mg/kg in the data set with Mus musculus [1] of 0%. The molecule further registered a survival at 40 mg/kg in the data set on Mus musculus [6] of 50%. Moreover, the lipophilicity (logP) in data set [3] (read-out: logP) is 7.43.

On to `CN1CC[C@H]2c3ccccc3C(c3ccccc3)[C@H]2C1` (single isomer, unassigned), for which the 50% effect level in the data set listed under Mus musculus [10] (ED50) was put at a dose of 40 mg/kg.

In the data set on Mus musculus [5], `CN1CCC2C(=C(c3ccccc3)c3ccccc32)C1` (centres undefined) displayed a survival at 40 mg/kg of 100%. Moreover, the logP in [3] (read-out: logP) was 5.23. The molecule further yielded a survival at 10 mg/kg in the data set on Mus musculus [11] of 50%. On Histamine H1 receptor [4], the pIC50 was 7.55.

`c1ccc(CCN2CCC3=C(C2)C(c2ccccc2)c2ccccc23)cc1` (centres undefined) had a survival at 10 mg/kg with Mus musculus [1] of 0%. This molecule registered a survival at 40 mg/kg with Mus musculus [2] of 0%. Further, in data set [3] (read-out: logP), the logP amounted to 6.59.

With `CCN1CC[C@@](O)(c2ccccc2)[C@H](C(=O)c2ccccc2)C1`, in the data set listed under Mus musculus [9], the outcome was inactive. For the same molecule, on Histamine H1 receptor [4], the pIC50 is 7.64.

Turning to `CN1CC[C@H]2c3ccccc3[C@@H](c3ccccc3)[C@H]2C1`, the result in the data set filed under Mus musculus [12] was inactive.

The molecule `CN1CC=C2C(=C(c3ccccc3)c3ccccc32)C1` displayed a survival at 10 mg/kg in the data set with Mus musculus [1] of 0%. The molecule further yielded a survival at 40 mg/kg in the data set on Mus musculus [2] of 0%. The lipophilicity (logP) in [3] (read-out: logP) is 4.94. Further, on Histamine H1 receptor [4], the pIC50 was 6.66.

With `CCN1CC=C2C(=C(c3ccccc3)c3ccccc32)C1`, at Histamine H1 receptor [13], the IC50 entry is “Not Active”.

`CCc1ccc(C2C3=C(CCN(C)C3)c3ccc(CC)cc32)cc1` (centres undefined): the survival at 10 mg/kg in the data set on Mus musculus [1] was found to be 0%. In the data set with Mus musculus [2], this molecule gave a survival at 40 mg/kg of 0%.

Molecule `c1ccc(CN2CCC3C(=C(c4ccccc4)c4ccccc43)C2)cc1` (centres undefined) showed a survival at 10 mg/kg in the data set on Mus musculus [1] of 0%. This molecule also came in with a survival at 40 mg/kg with Mus musculus [2] of 0%. Besides, in [3], the logP is 7.03. In addition, the pIC50 against Histamine H1 receptor [4] is 7.97.

`CCN1CCC2=C(C1)C(c1ccccc1)c1ccccc12` (centres undefined) gave a survival at 10 mg/kg with Mus musculus [1] of 0%. For the same molecule, in the data set with Mus musculus [6], the survival at 40 mg/kg stood at 50%. Also, the logP in data set [3] (read-out: logP) was 4.92. Moreover, on Histamine H1 receptor [4], the pIC50 was 7.77.
